Results on one molecule are retold here after US20200164006A1, “METHODS AND COMPOSITIONS OF INCORPORATING A BIOACTIVE AGENT AND USE THEREOF” (INNOVANUTRA INC., priority 2017, published 2020).

The nature of data set [1]: Incorporation of quercetin in microbial carriers, extraction and absorbance at 388 nm (incorporation yield and efficiency). It counts as physicochemical. The note with it: cell incorporation process. Here is the method: The phrases “loading efficiency” or “incorporation efficiency” interchangeably refer to the incorporation efficiency on both wet basis determined as follows: IE(%)=CE/CT×100, where CE is the mass of extracted bioactive from the lipid membrane microcapsules after incorporation on a wet basis and CT is the amount of bioactive initially added to the lipid membrane microcapsules. A standard calibration curve was spectrophotometrically obtained for quercetin (QU995 is the food-grade form of quercetin) in dimethyl sulfoxide (DMSO). Incorporation of quercetin in yeast cells with ethanol-buffer mixture was achieved by a non-thermal, vacuum infusion method. Inactivated food-grade yeast cells were used to incorporate quercetin with an initial aim of achieving an incorporation yield or loading percent of 0.5%. The dry yeast cells were first washed with deionized water and an ethanol solution. The washed cells were weighed for use as control (without quercetin) and sample (with quercetin). The incorporation was done in high vacuum conditions and the control and sample were incubated in the dark. […] A 500 μL of supernatant was removed and measured absorbance at 388 nm. […] The problem encountered in a quadruple infusion was crystallization of quercetin around carriers, instead of being incorporated (determined by a multiphoton fluorescence imaging). […]

Data set [2] can be described thus: pH stability for quercetin in yeast, in L. casei and unincorporated quercetin. It counts as physicochemical. The note with it: pH 3, 4, 5, 6 over time; extraction at every time point. The procedure:
A comparative pH test at different pH's (3, 4, 5, 6) was done with quercetin incorporated in yeast, in L. casei and un-incorporated quercetin. At every time point, an extraction was done to spectrophotometrically determine the amount of quercetin retained. […] The percent retention is calculated by dividing the absorbance value at each time point with the absorbance value at the initial t=0.

Turning to `O=c1c(O)c(-c2ccc(O)c(O)c2)oc2cc(O)cc(O)c12` [quercetin], the “amount of quercetin that can efficiently incorporate into the cells” value in data set [1] worked out at 12.517 mg/g. For the same molecule, the “pH stability (amount of quercetin retained)” value in data set [2] is recorded as “rapid degradation over time”.
